Results published in patent publication US7524975B2, “Peroxisome proliferator activated receptor ligand and process for producing the same” (Kaneka Corporation, priority 2001, dated 2009).

Tests used:
[1] = biological target: T1, mouse PPARγ ligand-binding site (Mus musculus, UniProt P37238); assay: Measurement of PPARγ ligand activity (GAL4 chimera luciferase reporter in CV-1 cells); assay type: cell-based; conditions: for PPARγ ligand activity: CV-1 cells, 24 hours, specific activity relative to untreated control (DMSO) = 1.00; for PPARγ ligand activity compared with positive control troglitazone (in words): compared with 0.5 μM troglitazone
T1 construct: expressed in transfected cells; host or cells: CV-1 cells (African green monkey kidney)
T1 sequence (P37238 174-475 isoform P37238-2): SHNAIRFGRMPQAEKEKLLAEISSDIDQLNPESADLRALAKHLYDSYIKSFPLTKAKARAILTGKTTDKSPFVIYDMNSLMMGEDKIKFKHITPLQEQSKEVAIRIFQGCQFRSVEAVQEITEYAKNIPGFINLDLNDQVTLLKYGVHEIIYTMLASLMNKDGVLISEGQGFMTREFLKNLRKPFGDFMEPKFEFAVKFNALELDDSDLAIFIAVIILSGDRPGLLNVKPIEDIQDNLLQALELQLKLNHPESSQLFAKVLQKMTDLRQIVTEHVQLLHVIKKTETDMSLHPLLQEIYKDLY
Description: CV-1 cells (cultured cells derived from the kidney of a male African green monkey) were inoculated on a 96-well culture plate in a concentration of 6×10^3 cells/well and incubated at 37° C. in 5% CO2 for 24 hours. The medium used was DMEM (Dulbecco's Modified Eagle Medium: GIBCO) containing 10% FBS (fetal bovine serum), 10 ml/L penicillin and streptomycin solution (containing 5000 IU/ml and 5,000 μg/ml, respectively: GIBCO) and 37 mg/L ascorbic acid (Wako Pure Chemical Industries, Ltd.). […] 4xUASg-luc is a reporter plasmid comprising four GAL4 response sequences (UASg) integrated into a region upstream of a luciferase gene. At about 24 hours after transfection, the medium was exchanged with a sample-containing medium, and the cells were cultured for 24 hours (n=4). The sample-containing medium was prepared by dissolving a sample in dimethyl sulfoxide (DMSO) in an amount of 1/1000 based on the medium, while for the untreated control, DMSO in an amount of 1/1000 based on the medium was used in place of the sample. After the cells were washed with a Ca- and Mg-containing phosphate buffered physiological saline (PBS+), LucLite (Packard) was added thereto, and the intensity of luciferase luminescence was measured with a TopCount microplate scintillation/luminescence counter (Packard).
As the control group, pM (plasmid from which the PPARγ ligand-binding site gene was removed) was measured in place of pM-mPPARγ in the same manner as for the measurement group. For each sample, the ratio (measurement group/control group) of the average luminescence intensity of the measurement group (n=4) to that of the control group was calculated, and the specific activity relative to the activity of the untreated control was regarded as the PPARγ ligand activity of the sample.

KK-Ay mouse [2] = assay: Effect on type 2 diabetes mellitus model mouse: blood glucose level during mixed-feed administration; assay type: in vivo; conditions: KK-Ay mice; for Blood glucose level: means±SE, n=5
Description: Using a KK-Ay mouse which is genetically obese and type 2 diabetic animal, the effect of Compound 2 on diabetes mellitus was evaluated.
Compound 2 was prepared in the same procedure as in Example 1 and added to the basal diet such that the content of Compound 2 in a final feed was 0.1%. On the day before administration and 4 days after administration, a small amount of blood was collected from a mouse tail vein, and measured for its blood glucose level by a simple blood glucose measuring instrument Glutest Ace (Sanwa Kagaku Kenkyusho Co., Ltd.).

KK-Ay mouse [3] = assay: Glucose tolerance test (sucrose loading) in KK-Ay mice; assay type: in vivo; conditions: for Blood glucose level: oral pioglitazone 20 mg/kg or Compound 2 100 mg/kg
Description: After the mixed feed was given for 1 week, the mice were fasted overnight and then subjected to a glucose tolerance test. […] To the non-additive group (control group), 0.5% CMC-Na solution was administered in an amount of 5 ml/kg. At a time of 30 minutes after administration, the mice were loaded with 2 g/kg of 40% sucrose solution. Before the sugar loading and at a time of 30 minutes, 1 hour and 2 hours after the sugar loading, a small amount of blood was collected from a mouse tail vein, and measured for its blood glucose level by a simple blood glucose measuring instrument Glutest Ace (Sanwa Kagaku Kenkyusho Co., Ltd.).

[4] = 4 days after administration, in feed: pioglitazone 0.02%, Compound 2 0.1%
[5] = 30 minutes after sugar loading (2 g/kg sucrose)
[6] = 1 hour after sugar loading (2 g/kg sucrose)
[7] = before sugar loading, fasted KK-Ay mice after 1 week mixed feed

Row | SMILES | PPARγ ligand activity ([1]; added concentration 2 μg/ml) | PPARγ ligand activity ([1]; added concentration 5 μg/ml) | PPARγ ligand activity ([1]; added concentration 10 μg/ml) | PPARγ ligand activity compared with positive control troglitazone (in words) [1] | other results
1 | COc1cc2oc(=O)c(-c3ccc(O)cc3O)cc2c(OC)c1CC=C(C)C [Compound 2, Glycyrin] | 2.81 | 3.34 | 3.67 | – | Blood glucose level (KK-Ay mouse [2]; [4]): 278 ± 14 mg/dL; Blood glucose levels on the fourth day after the administration (in words) (KK-Ay mouse [2]; 0.1% in feed): statistically significantly reduced; Blood glucose level (KK-Ay mouse [2]; before administration): 474 ± 27 mg/dL; Blood glucose level (KK-Ay mouse [3]; [5]): 225 ± 27 mg/dL; Blood glucose level (KK-Ay mouse [3]; [6]): 129 ± 8 mg/dL; Blood glucose level (KK-Ay mouse [3]; 2 hour after sugar loading (2 g/kg sucrose)): 100 ± 3 mg/dL; Increase in blood glucose levels after the sugar loading (in words) (KK-Ay mouse [3]; KK-Ay mice, 100 mg/kg oral): statistically significantly inhibited a rapid increase in blood glucose levels after the sugar loading; Blood glucose level (KK-Ay mouse [3]; [7]): 78 ± 4 mg/dL
2 | CC1(C)C=Cc2c(ccc(C3COc4c(ccc5c4C=CC(C)(C)O5)C3)c2O)O1 (stereo not drawn) [Compound 20, Hispaglabridin B] | 1.04 | 1.45 | 1.94 | slightly weaker than that of a positive control containing 0.5 μM troglitazone | –
3 | COc1ccc(C2COc3c(ccc4c3C=CC(C)(C)O4)C2)c(O)c1 (stereo not drawn) [Compound 21, 4′-O-Methylglabridin] | 1.25 | 1.55 | 2.13 | – | –
4 | COc1ccc(C2COc3c(ccc4c3C=CC(C)(C)O4)C2)c(O)c1O (stereo not drawn) [Compound 22, 3′-Hydroxyl-4′-O-methylglabridin] | 1.61 | 2.46 | 1.69 | – | –
5 | CC(C)=CCc1cc([C@@H]2CC(=O)c3ccc(O)c(CC=C(C)C)c3O2)ccc1O [Compound 23, Glabrol] | 1.85 | 3.48 | 3.74 | – | –
6 | C=CC(C)(C)c1cc(/C=C/C(=O)c2ccc(O)cc2)c(OC)cc1O [Compound 24, Licochalcone A] | 4.02 | 4.14 | 4.16 | – | –
7 | COc1c(/C=C/C(=O)c2ccc(O)cc2)ccc(O)c1O [Compound 25, Licochalcone B] | 1.27 | 1.93 | 1.61 | slightly weaker than that of a positive control containing 0.5 μM troglitazone | –
8 | COc1c(/C=C/C(=O)c2ccc(O)cc2)ccc(O)c1CC=C(C)C [Compound 26, Licochalcone C] | 1.84 | 2.20 | 3.71 | – | –
9 | CC(C)=CCc1cc(C(=O)CC(=O)c2cc(CC=C(C)C)c(O)cc2O)ccc1O [Compound 27, Glycyrdione A] | 1.44 | 2.49 | 3.05 | – | –
10 | CC(C)=CCc1cc(C(=O)CC(=O)c2cc3c(cc2O)OC(C)(C)C=C3)ccc1O [Compound 28, Glycyrdione C] | 0.96 | 1.48 | 2.04 | slightly weaker than that of a positive control containing 0.5 μM troglitazone | –
11 | CC1(C)[C@@H](O)CC[C@]2(C)[C@H]3C(=O)C=C4[C@@H]5C[C@@](C)(C(=O)O)CC[C@]5(C)CC[C@@]4(C)[C@]3(C)CC[C@@H]12 [Glycyrrhetinic acid, glycyrrhetinic acid, reference compound] | 0.97 | 0.95 | 0.97 | not recognized to have a PPARγ ligand activity | –
12 | CCc1ccc(CCOc2ccc(CC3SC(=O)NC3=O)cc2)nc1 (stereo not drawn) [Pioglitazone, pioglitazone, reference compound] | – | – | – | – | Blood glucose level (KK-Ay mouse [2]; [4]): 191 ± 6 mg/dL; Blood glucose level (KK-Ay mouse [2]; before administration): 486 ± 26 mg/dL; Blood glucose level (KK-Ay mouse [3]; [5]): 158 ± 11 mg/dL; Blood glucose level (KK-Ay mouse [3]; [6]): 136 ± 5 mg/dL; Blood glucose level (KK-Ay mouse [3]; [7]): 89 ± 3 mg/dL
13 | O=c1c(O)c(-c2ccc(O)c(O)c2)oc2cc(O)cc(O)c12 [Quercetin, quercetin, reference compound] | 1.15 | 1.72 | 1.70 | not recognized to have a PPARγ ligand activity | –
